# Source: ChEMBL document CHEMBL4831520, “Discovery of First-in-Class Dual PARP and EZH2 Inhibitors for Triple-Negative Breast Cancer with Wild-Type BRCA” (J Med Chem, 2021)
# Test system: MCF7
# Test: cells
# Format: functional, cell-based
# Details: Homo sapiens, MCF7, 72 h
# Description: Antiproliferative activity against human MCF7 cells assessed as cell viability after 72 hrs by MTT assay
row,SMILES,IC50
1,C=C(C)C(=O)Nc1cc(-c2ccc(N3CCN(C(=O)c4cc(Cc5n[nH]c(=O)c6ccccc56)ccc4F)CC3)nc2)cc(C(=O)NCc2c(C)cc(C)[nH]c2=O)c1C,30.1 µM
2,Cc1cc(C)c(CNC(=O)c2cc(-c3ccc(N4CCN(C(=O)c5cc(Cc6n[nH]c(=O)c7ccccc67)ccc5F)CC4)nc3)cc3c2ccn3C(C)C)c(=O)[nH]1,47.5 µM
3,Cc1cc(C)c(CNC(=O)c2cc(-c3ccc(N4CCN(C(=O)c5cc(Cc6n[nH]c(=O)c7ccccc67)ccc5F)CC4)nc3)cc3c2ccn3C)c(=O)[nH]1,> 50 µM
4,Cc1cc(C)c(CNC(=O)c2cc(-c3ccc(N4CCN(C(=O)c5cc(Cc6n[nH]c(=O)c7ccccc67)ccc5F)CC4)nc3)ccc2C)c(=O)[nH]1,> 50 µM
5,Cc1cc(C)c(CNC(=O)c2ccc(C)c(-c3ccc(N4CCN(C(=O)c5cc(Cc6n[nH]c(=O)c7ccccc67)ccc5F)CC4)nc3)c2)c(=O)[nH]1,> 50 µM
6,CCn1ccc2c(C(=O)NCc3c(C)cc(C)[nH]c3=O)cc(-c3ccc(N4CCN(C(=O)c5cc(Cc6n[nH]c(=O)c7ccccc67)ccc5F)CC4)nc3)cc21,> 50 µM
7,CNc1cc(-c2ccc(N3CCN(C(=O)c4cc(Cc5n[nH]c(=O)c6ccccc56)ccc4F)CC3)nc2)cc(C(=O)NCc2c(C)cc(C)[nH]c2=O)c1C,> 50 µM
8,Cc1cc(C)c(CNC(=O)c2cc(-c3ccc(N4CCN(C(=O)c5cc(Cc6n[nH]c(=O)c7ccccc67)ccc5F)CC4)nc3)cc(N)c2C)c(=O)[nH]1,37.4 µM
9,Cc1cc(C)c(CNC(=O)c2cc(-c3ccc(N4CCN(C(=O)c5cc(Cc6n[nH]c(=O)c7ccccc67)ccc5F)CC4)nc3)cc3c2cnn3C(=O)N(C)C)c(=O)[nH]1,> 50 µM

# Next, values leading:
row,IC50,SMILES
1,> 50 µM,Cc1cc(C)c(CNC(=O)c2cc(-c3ccc(N4CCN(C(=O)c5cc(Cc6n[nH]c(=O)c7ccccc67)ccc5F)CC4)nc3)cc(C(F)(F)F)c2)c(=O)[nH]1
2,48.4 µM,Cc1cc(C)c(CNC(=O)c2cccc(-c3ccc(N4CCN(C(=O)c5cc(Cc6n[nH]c(=O)c7ccccc67)ccc5F)CC4)nc3)c2)c(=O)[nH]1
3,> 50 µM,Cc1cc(C(=O)NCc2c(C)cc(C)[nH]c2=O)cc(-c2ccc(N3CCN(C(=O)c4cc(Cc5n[nH]c(=O)c6ccccc56)ccc4F)CC3)nc2)c1
4,> 50 µM,Cc1cc(C)c(CNC(=O)c2cc(-c3ccc(N4CCN(C(=O)c5cc(Cc6n[nH]c(=O)c7ccccc67)ccc5F)CC4)nc3)cc([N+](=O)[O-])c2)c(=O)[nH]1
5,40.2 µM,Cc1cc(C)c(CNC(=O)c2cc(-c3ccc(N4CCN(C(=O)c5cc(Cc6n[nH]c(=O)c7ccccc67)ccc5F)CC4)nc3)cc3c2cnn3C(C)C)c(=O)[nH]1
6,> 50 µM,Cc1cc(C)c(CNC(=O)c2cc(-c3ccc(N4CCN(C(=O)c5cc(Cc6n[nH]c(=O)c7ccccc67)ccc5F)CC4)nc3)cc([N+](=O)[O-])c2C)c(=O)[nH]1
7,44.2 µM,COc1cc(C)c(C(=O)NCc2c(C)cc(C)[nH]c2=O)cc1-c1ccc(N2CCN(C(=O)c3cc(Cc4n[nH]c(=O)c5ccccc45)ccc3F)CC2)nc1

# Test system: MCF-10A
# Test: cells
# Format: ADME, cell-based
# Details: Homo sapiens, 72 h
# Description: Antiproliferative activity against human MCF-10A cells assessed as cell viability after 72 hrs by MTT assay
row,SMILES,IC50
1,Cc1cc(C)c(CNC(=O)c2cc(-c3ccc(N4CCN(C(=O)c5cc(Cc6n[nH]c(=O)c7ccccc67)ccc5F)CC4)nc3)cc(C(F)(F)F)c2)c(=O)[nH]1,> 50 µM
2,C=C(C)C(=O)Nc1cc(-c2ccc(N3CCN(C(=O)c4cc(Cc5n[nH]c(=O)c6ccccc56)ccc4F)CC3)nc2)cc(C(=O)NCc2c(C)cc(C)[nH]c2=O)c1C,> 50 µM
3,Cc1cc(C)c(CNC(=O)c2cccc(-c3ccc(N4CCN(C(=O)c5cc(Cc6n[nH]c(=O)c7ccccc67)ccc5F)CC4)nc3)c2)c(=O)[nH]1,> 50 µM
4,Cc1cc(C(=O)NCc2c(C)cc(C)[nH]c2=O)cc(-c2ccc(N3CCN(C(=O)c4cc(Cc5n[nH]c(=O)c6ccccc56)ccc4F)CC3)nc2)c1,> 50 µM
5,Cc1cc(C)c(CNC(=O)c2cc(-c3ccc(N4CCN(C(=O)c5cc(Cc6n[nH]c(=O)c7ccccc67)ccc5F)CC4)nc3)cc3c2ccn3C(C)C)c(=O)[nH]1,> 50 µM
6,Cc1cc(C)c(CNC(=O)c2cc(-c3ccc(N4CCN(C(=O)c5cc(Cc6n[nH]c(=O)c7ccccc67)ccc5F)CC4)nc3)cc3c2ccn3C)c(=O)[nH]1,> 50 µM
7,Cc1cc(C)c(CNC(=O)c2cc(-c3ccc(N4CCN(C(=O)c5cc(Cc6n[nH]c(=O)c7ccccc67)ccc5F)CC4)nc3)cc([N+](=O)[O-])c2)c(=O)[nH]1,> 50 µM
8,Cc1cc(C)c(CNC(=O)c2cc(-c3ccc(N4CCN(C(=O)c5cc(Cc6n[nH]c(=O)c7ccccc67)ccc5F)CC4)nc3)ccc2C)c(=O)[nH]1,> 50 µM
9,Cc1cc(C)c(CNC(=O)c2cc(-c3ccc(N4CCN(C(=O)c5cc(Cc6n[nH]c(=O)c7ccccc67)ccc5F)CC4)nc3)cc3c2cnn3C(C)C)c(=O)[nH]1,> 50 µM
10,Cc1cc(C)c(CNC(=O)c2ccc(C)c(-c3ccc(N4CCN(C(=O)c5cc(Cc6n[nH]c(=O)c7ccccc67)ccc5F)CC4)nc3)c2)c(=O)[nH]1,> 50 µM
11,CCn1ccc2c(C(=O)NCc3c(C)cc(C)[nH]c3=O)cc(-c3ccc(N4CCN(C(=O)c5cc(Cc6n[nH]c(=O)c7ccccc67)ccc5F)CC4)nc3)cc21,> 50 µM
12,CNc1cc(-c2ccc(N3CCN(C(=O)c4cc(Cc5n[nH]c(=O)c6ccccc56)ccc4F)CC3)nc2)cc(C(=O)NCc2c(C)cc(C)[nH]c2=O)c1C,> 50 µM
13,Cc1cc(C)c(CNC(=O)c2cc(-c3ccc(N4CCN(C(=O)c5cc(Cc6n[nH]c(=O)c7ccccc67)ccc5F)CC4)nc3)cc(N)c2C)c(=O)[nH]1,> 50 µM
14,Cc1cc(C)c(CNC(=O)c2cc(-c3ccc(N4CCN(C(=O)c5cc(Cc6n[nH]c(=O)c7ccccc67)ccc5F)CC4)nc3)cc([N+](=O)[O-])c2C)c(=O)[nH]1,> 50 µM
15,COc1cc(C)c(C(=O)NCc2c(C)cc(C)[nH]c2=O)cc1-c1ccc(N2CCN(C(=O)c3cc(Cc4n[nH]c(=O)c5ccccc45)ccc3F)CC2)nc1,> 50 µM
16,Cc1cc(C)c(CNC(=O)c2cc(-c3ccc(N4CCN(C(=O)c5cc(Cc6n[nH]c(=O)c7ccccc67)ccc5F)CC4)nc3)cc3c2cnn3C(=O)N(C)C)c(=O)[nH]1,> 50 µM

# Test system: MDA-MB-468
# Test: cells
# Format: functional, cell-based
# Details: Homo sapiens, MDA-MB-468, 72 h
# Description: Antiproliferative activity against human MDA-MB-468 cells assessed as cell viability after 72 hrs by MTT assay
row,SMILES,IC50
1,C=C(C)C(=O)Nc1cc(-c2ccc(N3CCN(C(=O)c4cc(Cc5n[nH]c(=O)c6ccccc56)ccc4F)CC3)nc2)cc(C(=O)NCc2c(C)cc(C)[nH]c2=O)c1C,2.21 µM
2,Cc1cc(C)c(CNC(=O)c2cc(-c3ccc(N4CCN(C(=O)c5cc(Cc6n[nH]c(=O)c7ccccc67)ccc5F)CC4)nc3)cc3c2ccn3C(C)C)c(=O)[nH]1,21.6 µM
3,Cc1cc(C)c(CNC(=O)c2cc(-c3ccc(N4CCN(C(=O)c5cc(Cc6n[nH]c(=O)c7ccccc67)ccc5F)CC4)nc3)cc3c2ccn3C)c(=O)[nH]1,> 50 µM
4,Cc1cc(C)c(CNC(=O)c2cc(-c3ccc(N4CCN(C(=O)c5cc(Cc6n[nH]c(=O)c7ccccc67)ccc5F)CC4)nc3)ccc2C)c(=O)[nH]1,28.3 µM
5,Cc1cc(C)c(CNC(=O)c2ccc(C)c(-c3ccc(N4CCN(C(=O)c5cc(Cc6n[nH]c(=O)c7ccccc67)ccc5F)CC4)nc3)c2)c(=O)[nH]1,28.8 µM
6,CCn1ccc2c(C(=O)NCc3c(C)cc(C)[nH]c3=O)cc(-c3ccc(N4CCN(C(=O)c5cc(Cc6n[nH]c(=O)c7ccccc67)ccc5F)CC4)nc3)cc21,> 50 µM
7,CNc1cc(-c2ccc(N3CCN(C(=O)c4cc(Cc5n[nH]c(=O)c6ccccc56)ccc4F)CC3)nc2)cc(C(=O)NCc2c(C)cc(C)[nH]c2=O)c1C,17.3 µM
8,Cc1cc(C)c(CNC(=O)c2cc(-c3ccc(N4CCN(C(=O)c5cc(Cc6n[nH]c(=O)c7ccccc67)ccc5F)CC4)nc3)cc(N)c2C)c(=O)[nH]1,12.1 µM
9,Cc1cc(C)c(CNC(=O)c2cc(-c3ccc(N4CCN(C(=O)c5cc(Cc6n[nH]c(=O)c7ccccc67)ccc5F)CC4)nc3)cc3c2cnn3C(=O)N(C)C)c(=O)[nH]1,> 50 µM

# Further lines, results first:
row,IC50,SMILES
1,> 50 µM,Cc1cc(C)c(CNC(=O)c2cc(-c3ccc(N4CCN(C(=O)c5cc(Cc6n[nH]c(=O)c7ccccc67)ccc5F)CC4)nc3)cc(C(F)(F)F)c2)c(=O)[nH]1
2,29.7 µM,Cc1cc(C)c(CNC(=O)c2cccc(-c3ccc(N4CCN(C(=O)c5cc(Cc6n[nH]c(=O)c7ccccc67)ccc5F)CC4)nc3)c2)c(=O)[nH]1
3,32.5 µM,Cc1cc(C(=O)NCc2c(C)cc(C)[nH]c2=O)cc(-c2ccc(N3CCN(C(=O)c4cc(Cc5n[nH]c(=O)c6ccccc56)ccc4F)CC3)nc2)c1
4,> 50 µM,Cc1cc(C)c(CNC(=O)c2cc(-c3ccc(N4CCN(C(=O)c5cc(Cc6n[nH]c(=O)c7ccccc67)ccc5F)CC4)nc3)cc([N+](=O)[O-])c2)c(=O)[nH]1
5,17.9 µM,Cc1cc(C)c(CNC(=O)c2cc(-c3ccc(N4CCN(C(=O)c5cc(Cc6n[nH]c(=O)c7ccccc67)ccc5F)CC4)nc3)cc3c2cnn3C(C)C)c(=O)[nH]1
6,> 50 µM,Cc1cc(C)c(CNC(=O)c2cc(-c3ccc(N4CCN(C(=O)c5cc(Cc6n[nH]c(=O)c7ccccc67)ccc5F)CC4)nc3)cc([N+](=O)[O-])c2C)c(=O)[nH]1
7,1940 µM,COc1cc(C)c(C(=O)NCc2c(C)cc(C)[nH]c2=O)cc1-c1ccc(N2CCN(C(=O)c3cc(Cc4n[nH]c(=O)c5ccccc45)ccc3F)CC2)nc1

# Test system: MDA-MB-231
# Test: cells
# Format: functional, cell-based
# Details: Homo sapiens, MDA-MB-231, 72 h
# Description: Antiproliferative activity against human MDA-MB-231 cells assessed as cell viability after 72 hrs by MTT assay
row,SMILES,IC50
1,C=C(C)C(=O)Nc1cc(-c2ccc(N3CCN(C(=O)c4cc(Cc5n[nH]c(=O)c6ccccc56)ccc4F)CC3)nc2)cc(C(=O)NCc2c(C)cc(C)[nH]c2=O)c1C,17.9 µM
2,Cc1cc(C)c(CNC(=O)c2cc(-c3ccc(N4CCN(C(=O)c5cc(Cc6n[nH]c(=O)c7ccccc67)ccc5F)CC4)nc3)cc3c2ccn3C(C)C)c(=O)[nH]1,33.5 µM
3,Cc1cc(C)c(CNC(=O)c2cc(-c3ccc(N4CCN(C(=O)c5cc(Cc6n[nH]c(=O)c7ccccc67)ccc5F)CC4)nc3)cc3c2ccn3C)c(=O)[nH]1,> 50 µM
4,Cc1cc(C)c(CNC(=O)c2cc(-c3ccc(N4CCN(C(=O)c5cc(Cc6n[nH]c(=O)c7ccccc67)ccc5F)CC4)nc3)ccc2C)c(=O)[nH]1,30.2 µM
5,Cc1cc(C)c(CNC(=O)c2ccc(C)c(-c3ccc(N4CCN(C(=O)c5cc(Cc6n[nH]c(=O)c7ccccc67)ccc5F)CC4)nc3)c2)c(=O)[nH]1,> 50 µM
6,CCn1ccc2c(C(=O)NCc3c(C)cc(C)[nH]c3=O)cc(-c3ccc(N4CCN(C(=O)c5cc(Cc6n[nH]c(=O)c7ccccc67)ccc5F)CC4)nc3)cc21,> 50 µM
7,CNc1cc(-c2ccc(N3CCN(C(=O)c4cc(Cc5n[nH]c(=O)c6ccccc56)ccc4F)CC3)nc2)cc(C(=O)NCc2c(C)cc(C)[nH]c2=O)c1C,46 µM
8,Cc1cc(C)c(CNC(=O)c2cc(-c3ccc(N4CCN(C(=O)c5cc(Cc6n[nH]c(=O)c7ccccc67)ccc5F)CC4)nc3)cc(N)c2C)c(=O)[nH]1,1920 µM
9,Cc1cc(C)c(CNC(=O)c2cc(-c3ccc(N4CCN(C(=O)c5cc(Cc6n[nH]c(=O)c7ccccc67)ccc5F)CC4)nc3)cc3c2cnn3C(=O)N(C)C)c(=O)[nH]1,> 50 µM

# Results, then the molecule that gave them:
row,IC50,SMILES
1,43.4 µM,Cc1cc(C)c(CNC(=O)c2cc(-c3ccc(N4CCN(C(=O)c5cc(Cc6n[nH]c(=O)c7ccccc67)ccc5F)CC4)nc3)cc(C(F)(F)F)c2)c(=O)[nH]1
2,25 µM,Cc1cc(C)c(CNC(=O)c2cccc(-c3ccc(N4CCN(C(=O)c5cc(Cc6n[nH]c(=O)c7ccccc67)ccc5F)CC4)nc3)c2)c(=O)[nH]1
3,> 50 µM,Cc1cc(C(=O)NCc2c(C)cc(C)[nH]c2=O)cc(-c2ccc(N3CCN(C(=O)c4cc(Cc5n[nH]c(=O)c6ccccc56)ccc4F)CC3)nc2)c1
4,> 50 µM,Cc1cc(C)c(CNC(=O)c2cc(-c3ccc(N4CCN(C(=O)c5cc(Cc6n[nH]c(=O)c7ccccc67)ccc5F)CC4)nc3)cc([N+](=O)[O-])c2)c(=O)[nH]1
5,25.8 µM,Cc1cc(C)c(CNC(=O)c2cc(-c3ccc(N4CCN(C(=O)c5cc(Cc6n[nH]c(=O)c7ccccc67)ccc5F)CC4)nc3)cc3c2cnn3C(C)C)c(=O)[nH]1
6,> 50 µM,Cc1cc(C)c(CNC(=O)c2cc(-c3ccc(N4CCN(C(=O)c5cc(Cc6n[nH]c(=O)c7ccccc67)ccc5F)CC4)nc3)cc([N+](=O)[O-])c2C)c(=O)[nH]1
7,26.1 µM,COc1cc(C)c(C(=O)NCc2c(C)cc(C)[nH]c2=O)cc1-c1ccc(N2CCN(C(=O)c3cc(Cc4n[nH]c(=O)c5ccccc45)ccc3F)CC2)nc1
